From paper PMC7529893, “Structural basis for substrate recognition and chemical inhibition of oncogenic MAGE ubiquitin ligases” (Nature Communications, 2020)

target: T1, MAGE-A11:PCF11 interaction (GST-MAGE-A11 and FAM-PCF11_4) (Homo sapiens, UniProt P43364); experiment: TR-FRET primary / single point screen at 15 µM; assay type: binding; details: single point TR-FRET screening of 797 quinoline compounds against MAGE-A11:PCF11
T1 construct: GST-MAGE-A11 MHD (human MAGE-A11 MHD amino acid 218-429); made in house; host or cells: E. coli BL21(DE3)
T1 sequence (P43364 218-429): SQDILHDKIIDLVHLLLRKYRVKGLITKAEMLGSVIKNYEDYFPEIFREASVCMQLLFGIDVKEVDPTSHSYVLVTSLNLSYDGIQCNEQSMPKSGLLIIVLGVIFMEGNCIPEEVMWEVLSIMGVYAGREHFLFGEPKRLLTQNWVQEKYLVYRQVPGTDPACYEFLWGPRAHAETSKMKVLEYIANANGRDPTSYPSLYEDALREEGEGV
Method in brief: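 Single-point screen at 15 µM final compound in 50 mM Tris pH 7.5, 20 mM MgCl2, 0.1 mg/ml BSA, 1 mM DTT, with 200 nM FAM-PCF11_4, 5 nM Tb-anti-GST and 5 nM GST-MAGE-A11. After 90 min at room temperature, the 520/490 nm TR-FRET ratio (340 nm excitation) gave %Inhibition against no-MAGE-A11 and DMSO controls.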

Row | percent inhibition (TR-FRET) | Structure (SMILES)
1 | 26.3784 | FC(F)(F)c1cccc(CN(CCCCNc2ccnc3cc(Cl)ccc23)Cc2ccccc2)c1 [SJ000520455]
2 | -12.8602 | Cc1csc(CN(CCCCNc2ccnc3cc(Cl)ccc23)Cc2ccccc2)n1 [SJ000520456]
3 | 33.314 | FC(F)(F)Oc1cccc(CN(CCCCNc2ccnc3cc(Cl)ccc23)Cc2ccccc2)c1 [SJ000520457]
4 | 30.8594 | FC(F)(F)Oc1ccccc1CN(CCCCNc1ccnc2cc(Cl)ccc12)Cc1ccccc1 [SJ000520459]
5 | 28.7514 | Fc1cccc(C(F)(F)F)c1CN(CCCCNc1ccnc2cc(Cl)ccc12)Cc1ccccc1 [SJ000520465]
6 | 25.2787 | FC(F)(F)c1cc(CN(CCCCNc2ccnc3cc(Cl)ccc23)Cc2ccccc2)ccc1Cl [SJ000520466]
7 | -184.229 | COc1ccc2nc3cc(Cl)ccc3c(NCCCNCc3ccc4[nH]ccc4c3)c2c1 [SJ000520914]
8 | -298.775 | COc1ccc2nc3cc(Cl)ccc3c(NCCCNCc3c(F)cccc3OC)c2c1 [SJ000520915]
9 | -299.405 | COc1ccc2nc3cc(Cl)ccc3c(NCCCNCc3ccoc3)c2c1 [SJ000520916]
10 | -288.202 | CCCN(CCC)CCCNc1c2ccc(Cl)cc2nc2ccc(OC)cc12 [SJ000520917]
11 | -146.21 | CCCN(CCCNc1c2ccc(Cl)cc2nc2ccc(OC)cc12)Cc1ccccn1 [SJ000520919]
12 | -164.134 | CCCN(CCCNc1c2ccc(Cl)cc2nc2ccc(OC)cc12)Cc1cccs1 [SJ000520920]
13 | -258.026 | CCCN(CCCNc1c2ccc(Cl)cc2nc2ccc(OC)cc12)Cc1ccsc1 [SJ000520922]
14 | -271.048 | CCCN(CCCNc1c2ccc(Cl)cc2nc2ccc(OC)cc12)Cc1ccc[nH]1 [SJ000520923]
15 | -127.926 | CCCN(CCCNc1c2ccc(Cl)cc2nc2ccc(OC)cc12)Cc1ccccc1 [SJ000520925]
16 | -124.818 | CCCN(CCCNc1c2ccc(Cl)cc2nc2ccc(OC)cc12)Cc1ccc(C)s1 [SJ000520927]
17 | -137.318 | CCCN(CCCNc1c2ccc(Cl)cc2nc2ccc(OC)cc12)Cc1ccc(Br)o1 [SJ000520929]
18 | -150.831 | CCCN(CCCNc1c2ccc(Cl)cc2nc2ccc(OC)cc12)Cc1cc(OC)ccc1O [SJ000520933]
19 | -202.643 | CCCN(CCCNc1c2ccc(Cl)cc2nc2ccc(OC)cc12)Cc1ccco1 [SJ000520935]
20 | -271.356 | CCCN(CCCNc1c2ccc(Cl)cc2nc2ccc(OC)cc12)CC1CC1 [SJ000520936]
21 | -394.576 | CCCN(CCCNc1c2ccc(Cl)cc2nc2ccc(OC)cc12)Cc1ccoc1 [SJ000520937]
22 | -163.904 | CCCN(CCCNc1c2ccc(Cl)cc2nc2ccc(OC)cc12)CC1CCCCC1 [SJ000520938]
23 | -160.284 | CCCN(CCCNc1c2ccc(Cl)cc2nc2ccc(OC)cc12)CC(CC)CC [SJ000520939]
24 | -193.541 | CCCN(CCCNc1c2ccc(Cl)cc2nc2ccc(OC)cc12)Cc1ccc2c(c1)OCO2 [SJ000520940]
25 | -210.345 | CCCCCN(CCC)CCCNc1c2ccc(Cl)cc2nc2ccc(OC)cc12 [SJ000520941]
26 | -241.432 | CCCN(CCCNc1c2ccc(Cl)cc2nc2ccc(OC)cc12)Cc1ccc(OC)cc1 [SJ000520943]
27 | -118.554 | CCCN(CCCNc1c2ccc(Cl)cc2nc2ccc(OC)cc12)Cc1ccccc1F [SJ000520944]
28 | -141.659 | CCCN(CCCNc1c2ccc(Cl)cc2nc2ccc(OC)cc12)Cc1ccc(F)cc1 [SJ000520946]
29 | -228.339 | CCCN(CCCNc1c2ccc(Cl)cc2nc2ccc(OC)cc12)Cc1ccccc1[N+](=O)[O-] [SJ000520947]

same assay, conditions: single point TR-FRET screening of quinoline compounds against MAGE-A11:PCF11; 15 µM

Row | percent inhibition (TR-FRET) | Structure (SMILES)
30 | 28.1386 | Clc1ccc2c(NCCCN(Cc3ccccc3)Cc3csc4ccccc34)ccnc2c1 [SJ000520454]
31 | 29.7727 | Cc1ccc(F)cc1CN(CCCNc1ccnc2cc(Cl)ccc12)Cc1ccccc1 [SJ000520458]
32 | 25.0481 | FC(F)(F)Oc1ccc(CN(CCCNc2ccnc3cc(Cl)ccc23)Cc2ccccc2)cc1 [SJ000520460]
33 | 5.6 | Clc1ccc2c(NCCCN(Cc3ccccc3)Cc3cc4ccccc4o3)ccnc2c1 [SJ000520461]
34 | 9.715 | Clc1ccc2c(NCCCN(Cc3ccccc3)Cc3cccnc3Br)ccnc2c1 [SJ000520462]
35 | -10.469 | Cc1csc(CN(CCCNc2ccnc3cc(Cl)ccc23)Cc2ccccc2)n1 [SJ000520463]
36 | 27.7788 | FC(F)(F)Oc1cccc(CN(CCCNc2ccnc3cc(Cl)ccc23)Cc2ccccc2)c1 [SJ000520464]
37 | 22.0104 | Fc1cccc(C(F)(F)F)c1CN(CCCNc1ccnc2cc(Cl)ccc12)Cc1ccccc1 [SJ000520467]
38 | 16.1561 | CCCN(CCCNc1ccnc2cc(C(F)(F)F)ccc12)Cc1c[nH]c2ccccc12 [SJ000520468]
39 | 25.5382 | CCCN(CCCNc1ccnc2cc(C(F)(F)F)ccc12)Cc1cn(C)c2ccccc12 [SJ000520469]
40 | 5.934 | CCCN(CCCNc1ccnc2cc(C(F)(F)F)ccc12)Cc1ccccc1OC(F)(F)F [SJ000520470]
41 | 13.0224 | CCCN(CCCNc1ccnc2cc(C(F)(F)F)ccc12)Cc1cccc(C(F)(F)F)c1 [SJ000520471]
42 | 14.6158 | CCCN(CCCNc1ccnc2cc(C(F)(F)F)ccc12)Cc1cccc2c1OCO2 [SJ000520472]
43 | 9.085 | CCCN(CCCNc1ccnc2cc(C(F)(F)F)ccc12)Cc1cccc(OC(F)(F)F)c1 [SJ000520473]
44 | 17.3802 | CCCN(CCCNc1ccnc2cc(C(F)(F)F)ccc12)Cc1ccc(OC(F)(F)F)cc1 [SJ000520474]
45 | 15.746 | CCCN(CCCNc1ccnc2cc(C(F)(F)F)ccc12)Cc1cc(F)ccc1OC [SJ000520475]
46 | 32.3298 | CCCN(CCCNc1ccnc2cc(C(F)(F)F)ccc12)CCC(C)(C)C [SJ000520476]
47 | 23.5778 | CCCCN(CCC)CCCNc1ccnc2cc(C(F)(F)F)ccc12 [SJ000520477]
48 | -9.243 | CCCN(CCCNc1ccnc2cc(C(F)(F)F)ccc12)Cc1cc(Br)cs1 [SJ000520478]
49 | -20.4102 | CCCN(CCCNc1ccnc2cc(C(F)(F)F)ccc12)Cc1cc2ccccc2o1 [SJ000520479]

Row | percent inhibition (TR-FRET) | Structure (SMILES)
50 | 11.9552 | CCCN(CCCNc1ccnc2cc(C(F)(F)F)ccc12)Cc1cc(OC)ccc1F [SJ000520480]
51 | 11.4651 | CCCN(CCCNc1ccnc2cc(C(F)(F)F)ccc12)Cc1c(F)cccc1C(F)(F)F [SJ000520481]
52 | 13.0054 | CCCN(CCCNc1ccnc2cc(C(F)(F)F)ccc12)Cc1cc2ccccc2s1 [SJ000520482]
53 | 19.4469 | CCCN(CCCNc1ccnc2cc(C(F)(F)F)ccc12)Cc1csc2ccccc12 [SJ000520483]
54 | 7.404 | CCCN(CCCNc1ccnc2cc(C(F)(F)F)ccc12)Cc1nc2ccccc2s1 [SJ000520484]
55 | 5.6 | CCCN(CCCNc1ccnc2cc(C(F)(F)F)ccc12)Cc1cc(OC(F)(F)F)ccc1OC [SJ000520485]
56 | 8.188 | CCCN(CCCNc1ccnc2cc(C(F)(F)F)ccc12)Cc1cc(C(F)(F)F)ccc1OC [SJ000520486]
57 | 6.284 | O=[N+]([O-])c1ccc(CNCCCNc2ccnc3cc(Cl)ccc23)s1 [SJ000520912]
58 | -11.15 | Clc1ccc2c(NCCCNCc3ccoc3)ccnc2c1 [SJ000520913]
59 | -1.797 | CCCN(CCCNc1c2ccc(Cl)cc2nc2ccc(OC)cc12)Cc1ccncc1 [SJ000520918]
60 | -83.8109 | CCCN(CCCNc1c2ccc(Cl)cc2nc2ccc(OC)cc12)Cc1sccc1C [SJ000520921]
61 | -56.4502 | CCCN(CCCNc1c2ccc(Cl)cc2nc2ccc(OC)cc12)Cc1ccc(Br)s1 [SJ000520924]
62 | -91.8376 | CCCN(CCCNc1c2ccc(Cl)cc2nc2ccc(OC)cc12)Cc1ccccc1O [SJ000520926]
63 | 14.1686 | CCCN(CCCNc1c2ccc(Cl)cc2nc2ccc(OC)cc12)Cc1ccccc1C(F)(F)F [SJ000520928]
64 | -81.9559 | CCCN(CCCNc1c2ccc(Cl)cc2nc2ccc(OC)cc12)Cc1cccc(OC)c1O [SJ000520930]
65 | 1.847 | CCCN(CCCNc1c2ccc(Cl)cc2nc2ccc(OC)cc12)Cc1cc(F)ccc1OC [SJ000520931]
66 | 0.9854 | CCCN(CCCNc1c2ccc(Cl)cc2nc2ccc(OC)cc12)Cc1ccc(C)o1 [SJ000520932]
67 | -46.315 | CCCN(CCCNc1c2ccc(Cl)cc2nc2ccc(OC)cc12)Cc1c(C)cc(C)cc1C [SJ000520934]
68 | 0.9703 | CCCN(CCCNc1c2ccc(Cl)cc2nc2ccc(OC)cc12)Cc1ccc(F)c(F)c1 [SJ000520942]
69 | -90.1278 | CCCN(CCCNc1c2ccc(Cl)cc2nc2ccc(OC)cc12)Cc1cccc(F)c1 [SJ000520945]
